Columns and labels:
THP-1 = experiment: Inhibition of LPS-induced TNFalpha production in human THP1 cells; assay type: functional, cell-based
[1] = molecular target: T1, Mitogen-activated protein kinase 14 (Homo sapiens, UniProt Q16539); experiment: Inhibition of human p38-alpha kinase phosphorylation
[2] = molecular target: T1, Mitogen-activated protein kinase 14; experiment: Inhibition of human p38-alpha kinase
[3] = Clearance in rat at 10 mg/kg, iv; assay type: ADME, organism-based; set-up: dose 10 mg/kg, route intravenous; conditions: in vivo
[4] = Half life in rat at 30 mg/kg, po; assay type: ADME, organism-based; set-up: dose 30 mg/kg, route oral; conditions: in vivo
[5] = Bioavailability in rat at 30 mg/kg, po; assay type: ADME, organism-based; conditions: in vivo
[6] = Volume of distribution at steady state in rat at 10 mg/kg, iv; assay type: ADME, organism-based; set-up: dose 10 mg/kg, route intravenous; conditions: in vivo, read-out: Vdss
[7] = Cmax in rat at 30 mg/kg, po; assay type: ADME, organism-based; set-up: dose 30 mg/kg, route oral; conditions: in vivo
[8] = AUC in rat at 30 mg/kg, po; assay type: ADME, organism-based; set-up: dose 30 mg/kg, route oral; conditions: plasma
[9] = Tmax in rat at 30 mg/kg, po; assay type: ADME, organism-based; set-up: dose 30 mg/kg, route oral; conditions: in vivo

T1 sequence (Q16539 whole entry): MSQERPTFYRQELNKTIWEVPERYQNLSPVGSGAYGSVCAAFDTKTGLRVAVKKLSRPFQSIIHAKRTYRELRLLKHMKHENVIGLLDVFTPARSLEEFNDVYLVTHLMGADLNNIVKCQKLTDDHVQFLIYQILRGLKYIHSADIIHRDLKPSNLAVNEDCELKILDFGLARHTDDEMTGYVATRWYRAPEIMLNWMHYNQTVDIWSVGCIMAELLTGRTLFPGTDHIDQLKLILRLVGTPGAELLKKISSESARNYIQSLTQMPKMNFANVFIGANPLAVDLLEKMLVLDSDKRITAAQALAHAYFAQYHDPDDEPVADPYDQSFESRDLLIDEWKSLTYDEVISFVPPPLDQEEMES

Compound	IC50 (THP-1) [µM]	also measured
Cc1ccc(-n2nc(C(C)(C)C)cc2NC(=O)C(O)c2ccc(OCCN3CCOCC3)c3ccccc23)cc1 (stereo not given)	0.97	
CC(C)(C)c1cc(NC(=O)C(=O)c2ccc(OCCN3CCOCC3)c3ccccc23)n(-c2cccc(F)c2)n1	0.44	
Cc1ccc(-n2nc(C(C)(C)C)cc2NC(=O)C(=O)c2ccc(OCCN3CCOCC3)c3ccccc23)cc1	0.44	IC50 [1]: 0.31 µM; IC50 [2]: 0.32 µM
Cc1ccc(-n2nc(C(C)(C)C)cc2NC(=O)C(=O)c2ccc(OCCN3CCOCC3)c3ccc(Cl)cc23)cc1	2.6	
CC(C)(C)c1cc(NC(=O)C(=O)c2ccc(OCCN3CCOCC3)c3ccccc23)[nH]n1	1.5	
Cc1ccc(-n2nc(C(C)(C)C)cc2NC(=O)C(=O)c2ccc(OCCN3CCOCC3)c3ccccc23)cc1C	0.45	
Cc1cccc(-n2nc(C(C)(C)C)cc2NC(=O)C(=O)c2ccc(OCCN3CCOCC3)c3ccccc23)c1	0.34	
Cc1ccc(-n2nc(C(C)(C)C)cc2NC(=O)Nc2ccc(OCCN3CCOCC3)c3ccccc23)cc1 [DORAMAPIMOD]	0.013	
Cn1nc(C(C)(C)C)cc1NC(=O)C(=O)c1ccc(OCCN2CCOCC2)c2ccccc12		IC50 [1]: 0.3 µM; IC50 [2]: 0.15 µM
Cc1ccc(-n2nc(C(C)(C)C)cc2NC(=O)C(=O)c2ccc(OCCN3CCOCC3)c3ccccc23)cc1F	0.22	
Cc1ccc(-n2nc(C(C)(C)C)cc2NC(=O)c2n[nH]c3ccccc23)cc1	2.9	
CO/N=C(\C(=O)Nc1cc(C(C)(C)C)nn1-c1ccc(C)cc1)c1ccc(OCCN2CCOCC2)c2ccccc12	1.5	
Cc1ccc(-n2nc(C(C)(C)C)cc2NC(=O)Cc2ccc(OCCN3CCOCC3)c3ccccc23)cc1	1.4	
O=c1ncn2nc(Sc3ccc(F)cc3F)ccc2c1-c1c(Cl)cccc1Cl [NEFLAMAPIMOD]	0.039	
Cc1ccccc1-n1nc(C(C)(C)C)cc1NC(=O)C(=O)c1ccc(OCCN2CCOCC2)c2ccccc12	1.5	
CC(C)(C)c1cc(NC(=O)C(=O)c2ccc(OCCN3CCOCC3)c3ccccc23)n(-c2ccccc2)n1	2.1	
C[S+]([O-])c1ccc(-c2nc(-c3ccc(F)cc3)c(-c3ccncc3)[nH]2)cc1 (stereo not given) [SB-203580]	0.016	
Cc1ccc(-n2nc(C(C)(C)C)cc2NC(=O)/C(=N\O)c2ccc(OCCN3CCOCC3)c3ccccc23)cc1	0.023	clearance [3]: 15 mL/min/kg; half-life [4]: 1.4 h; bioavailability [5]: 100%; Vd [6]: 1.9 L/kg; Cmax [7]: 4500 ng/mL; AUC [8]: 36000 ng·h/mL; Tmax [9]: 1 h; IC50 [1]: 0.15 µM; IC50 [2]: 0.023 µM
